What all share (assay): HotSpot kinase profiling
What all share (assay type): biochemical

The target of one experiment is T1, DDR2 (Homo sapiens, UniProt Q16832).
T1 construct: purchased Reaction Biology Corp
T1 sequence (Q16832 22-855): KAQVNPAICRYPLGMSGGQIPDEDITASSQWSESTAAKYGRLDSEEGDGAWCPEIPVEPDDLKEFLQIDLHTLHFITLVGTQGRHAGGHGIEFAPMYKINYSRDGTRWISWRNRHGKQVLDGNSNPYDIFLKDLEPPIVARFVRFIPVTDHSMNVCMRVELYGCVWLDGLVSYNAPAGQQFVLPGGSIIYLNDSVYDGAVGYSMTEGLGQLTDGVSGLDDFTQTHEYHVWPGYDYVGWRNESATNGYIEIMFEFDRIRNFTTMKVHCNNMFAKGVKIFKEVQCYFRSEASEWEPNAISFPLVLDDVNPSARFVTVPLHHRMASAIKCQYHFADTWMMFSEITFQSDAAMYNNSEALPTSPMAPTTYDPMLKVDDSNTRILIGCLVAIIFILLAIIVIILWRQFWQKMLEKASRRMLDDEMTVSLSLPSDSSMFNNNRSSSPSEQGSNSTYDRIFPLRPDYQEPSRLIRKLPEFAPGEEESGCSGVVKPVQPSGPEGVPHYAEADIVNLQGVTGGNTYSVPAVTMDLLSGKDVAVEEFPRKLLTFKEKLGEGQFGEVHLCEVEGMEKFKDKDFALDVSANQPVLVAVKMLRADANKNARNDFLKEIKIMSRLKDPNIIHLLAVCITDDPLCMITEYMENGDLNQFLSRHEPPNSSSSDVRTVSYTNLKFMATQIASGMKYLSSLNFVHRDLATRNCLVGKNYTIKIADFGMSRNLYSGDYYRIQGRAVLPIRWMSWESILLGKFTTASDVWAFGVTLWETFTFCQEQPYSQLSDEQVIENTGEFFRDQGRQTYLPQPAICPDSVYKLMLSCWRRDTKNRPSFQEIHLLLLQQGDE
Put shortly:
(§1)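 Percent inhibition, averaged when run more than once and referenced to a DMSO negative control, came from a radioactive filter-binding readout on P81 paper. Reactions of kinase with freshly made substrate and cofactors ran for 2 h at room temperature.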

The target in the next experiment is T2, EPHA4 (Homo sapiens, UniProt P54764).
T2 construct: purchased Reaction Biology Corp
Put shortly:
as §1

The target in a further experiment is T3, CDK6/cyclin D1 (Homo sapiens, UniProt Q00534).
T3 construct: purchased Reaction Biology Corp
A digest of the protocol:
as §1

For a further experiment, the target named is T4, RIPK2 (Homo sapiens, UniProt O43353).
T4 construct: purchased Reaction Biology Corp
A digest of the protocol: as §1

Another experiment addresses T5, EPHB1 (Homo sapiens, UniProt P54762).
T5 construct: purchased Reaction Biology Corp
T5 sequence (P54762 18-984): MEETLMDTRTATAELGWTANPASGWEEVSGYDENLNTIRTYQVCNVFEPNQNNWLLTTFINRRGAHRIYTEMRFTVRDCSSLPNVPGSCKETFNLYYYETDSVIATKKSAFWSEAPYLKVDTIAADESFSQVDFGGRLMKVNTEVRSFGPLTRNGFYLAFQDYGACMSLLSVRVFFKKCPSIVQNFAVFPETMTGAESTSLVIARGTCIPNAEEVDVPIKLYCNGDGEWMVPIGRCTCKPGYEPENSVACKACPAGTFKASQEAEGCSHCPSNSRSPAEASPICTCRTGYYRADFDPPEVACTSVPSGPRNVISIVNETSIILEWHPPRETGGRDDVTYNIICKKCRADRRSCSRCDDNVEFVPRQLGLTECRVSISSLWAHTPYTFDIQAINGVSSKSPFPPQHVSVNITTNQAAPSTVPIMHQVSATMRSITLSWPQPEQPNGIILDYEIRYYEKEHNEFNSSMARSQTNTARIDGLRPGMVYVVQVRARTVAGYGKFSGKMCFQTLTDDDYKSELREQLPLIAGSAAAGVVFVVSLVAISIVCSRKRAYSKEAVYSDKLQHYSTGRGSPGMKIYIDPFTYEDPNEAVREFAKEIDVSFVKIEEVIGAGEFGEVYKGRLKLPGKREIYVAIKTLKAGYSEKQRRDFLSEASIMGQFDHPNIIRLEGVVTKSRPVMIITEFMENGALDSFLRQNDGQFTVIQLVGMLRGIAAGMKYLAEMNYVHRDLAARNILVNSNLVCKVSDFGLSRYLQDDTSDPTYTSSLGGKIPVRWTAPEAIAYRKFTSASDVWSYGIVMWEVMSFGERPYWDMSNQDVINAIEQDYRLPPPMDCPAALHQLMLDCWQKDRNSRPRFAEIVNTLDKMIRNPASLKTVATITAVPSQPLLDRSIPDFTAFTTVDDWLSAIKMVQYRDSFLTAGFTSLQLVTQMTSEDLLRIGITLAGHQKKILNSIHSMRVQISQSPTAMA
A digest of the protocol: as §1

A further experiment has as its target T6, MLCK2/MYLK2 (Homo sapiens, UniProt Q9H1R3).
T6 construct: purchased Reaction Biology Corp
A digest of the protocol: as §1

Setting [1] is: read-out: % Enzyme Activity (relative to DMSO controls) Run 1.
Setting [2] is: read-out: % Enzyme Activity (relative to DMSO controls) Run 2.

Where two headings read alike, the source gives them in different places.

T4 sequence (O43353 whole entry): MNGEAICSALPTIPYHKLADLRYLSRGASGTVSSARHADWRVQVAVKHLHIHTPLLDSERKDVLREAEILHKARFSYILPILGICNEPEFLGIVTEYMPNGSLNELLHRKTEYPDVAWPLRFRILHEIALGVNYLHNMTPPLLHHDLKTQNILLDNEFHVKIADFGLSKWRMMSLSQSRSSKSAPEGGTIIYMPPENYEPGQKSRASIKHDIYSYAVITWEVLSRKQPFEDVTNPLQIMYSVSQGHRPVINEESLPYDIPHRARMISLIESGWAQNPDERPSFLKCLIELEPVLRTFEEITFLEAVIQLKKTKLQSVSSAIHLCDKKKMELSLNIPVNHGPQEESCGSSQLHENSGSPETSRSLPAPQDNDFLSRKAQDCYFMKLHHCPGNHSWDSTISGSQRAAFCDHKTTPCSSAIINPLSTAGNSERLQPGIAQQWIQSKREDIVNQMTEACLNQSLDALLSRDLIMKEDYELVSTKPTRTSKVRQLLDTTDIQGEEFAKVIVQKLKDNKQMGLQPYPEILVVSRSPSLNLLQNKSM
T3 sequence (Q00534 whole entry): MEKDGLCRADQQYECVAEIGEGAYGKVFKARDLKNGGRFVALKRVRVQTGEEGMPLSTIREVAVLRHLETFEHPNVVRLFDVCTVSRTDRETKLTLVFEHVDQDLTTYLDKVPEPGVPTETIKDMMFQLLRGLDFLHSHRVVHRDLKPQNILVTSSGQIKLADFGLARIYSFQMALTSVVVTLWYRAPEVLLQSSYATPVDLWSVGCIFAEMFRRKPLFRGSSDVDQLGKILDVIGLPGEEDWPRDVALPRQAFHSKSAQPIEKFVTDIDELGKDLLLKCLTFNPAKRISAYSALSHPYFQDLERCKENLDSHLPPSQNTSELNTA
T3 sequence (P24385 whole entry partner): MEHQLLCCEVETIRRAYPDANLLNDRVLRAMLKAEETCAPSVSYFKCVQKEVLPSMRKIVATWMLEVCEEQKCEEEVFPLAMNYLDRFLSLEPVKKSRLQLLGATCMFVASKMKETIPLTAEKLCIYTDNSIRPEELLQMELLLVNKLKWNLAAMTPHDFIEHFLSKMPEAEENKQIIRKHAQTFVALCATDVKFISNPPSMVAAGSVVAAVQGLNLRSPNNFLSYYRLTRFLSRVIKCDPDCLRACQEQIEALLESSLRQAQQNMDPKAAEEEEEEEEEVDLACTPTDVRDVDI
T2 sequence (P54764 20-986): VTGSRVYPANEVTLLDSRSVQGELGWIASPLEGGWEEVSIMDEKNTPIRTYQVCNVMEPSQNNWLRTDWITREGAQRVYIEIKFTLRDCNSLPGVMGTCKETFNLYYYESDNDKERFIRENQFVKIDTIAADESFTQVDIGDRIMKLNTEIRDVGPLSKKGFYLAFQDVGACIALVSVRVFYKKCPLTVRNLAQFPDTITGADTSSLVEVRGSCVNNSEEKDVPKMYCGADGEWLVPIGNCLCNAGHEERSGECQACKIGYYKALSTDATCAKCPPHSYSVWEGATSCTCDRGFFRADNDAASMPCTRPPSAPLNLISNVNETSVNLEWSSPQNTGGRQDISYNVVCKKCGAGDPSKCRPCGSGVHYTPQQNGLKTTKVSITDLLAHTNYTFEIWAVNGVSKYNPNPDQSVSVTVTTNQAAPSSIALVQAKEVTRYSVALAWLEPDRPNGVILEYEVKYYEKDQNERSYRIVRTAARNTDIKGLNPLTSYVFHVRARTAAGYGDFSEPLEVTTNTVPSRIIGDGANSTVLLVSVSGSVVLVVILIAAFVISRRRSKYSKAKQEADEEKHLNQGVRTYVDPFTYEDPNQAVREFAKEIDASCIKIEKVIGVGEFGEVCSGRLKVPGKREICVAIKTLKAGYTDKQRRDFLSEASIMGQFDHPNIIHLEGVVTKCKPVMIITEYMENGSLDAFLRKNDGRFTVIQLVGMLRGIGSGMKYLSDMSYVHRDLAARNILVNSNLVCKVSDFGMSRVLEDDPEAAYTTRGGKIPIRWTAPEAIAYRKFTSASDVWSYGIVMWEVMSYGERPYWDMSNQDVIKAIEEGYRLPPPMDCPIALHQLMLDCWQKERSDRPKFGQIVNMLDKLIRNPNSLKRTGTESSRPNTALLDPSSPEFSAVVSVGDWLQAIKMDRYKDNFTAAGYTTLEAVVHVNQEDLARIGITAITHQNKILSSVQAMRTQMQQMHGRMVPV

The inhibition is the change of the read-out against control, counted positive when it falls. On to `C=CC(=O)Nc1cccc(Nc2nc(Nc3ccc(OCCOC)c(F)c3)ncc2F)c1` [Compound 2], for which the inhibition at 3 µM against DDR2 is -3.87%; against EPHA4 it was 9.09%; against CDK6/cyclin D1, -0.92%; against RIPK2, 23.7%; on EPHB1, 20.4%; against MLCK2/MYLK2 it was 30.1%. The remaining activity at 3 µM on DDR2 (setting [1]) is 103%; on DDR2 (setting [2]), 105%; on EPHA4 (setting [1]), 92.9%; on EPHA4 (setting [2]), 89%; at CDK6/cyclin D1 (setting [1]), 101%; at CDK6/cyclin D1 (setting [2]), 100%. In addition, the remaining activity at 3 µM on RIPK2 (setting [1]) was found to be 77.6%; on RIPK2 (setting [2]), 75%; on EPHB1 (setting [1]), 79.5%; on EPHB1 (setting [2]), 79.7%; on MLCK2/MYLK2 (setting [1]), 71.6%; at MLCK2/MYLK2 (setting [2]), 68.1%.

Values taken from US9492471B2, “Methods of treating a disease or disorder associated with Bruton'S Tyrosine Kinase” (Celgene Avilomics Research, Inc., priority 2013, dated 2016).
